Source: PubChem BioAssay AID1963832 (Molecular Pharmacology Branch, DTP, NCI, 2024)

Test system: 885724-159-R-J1-PDC complex spheroid viability
Assay: Anticancer human tumor 885724-159-R-J1-PDC patient-derived pancreatic adenocarcinoma cell line growth inhibition [POLQ]
Settings: for IC50: curve of first compound; for viability, T/C: stronger effect = lower value
Outline: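 Growth inhibition in 3D: complex spheroids (tumor PDC, HUVEC, MSC) treated with POLQ inhibitor combinations; where Cmax unknown, highest tested concentration 10 microM, except SN-38 at 1 microM.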

[1] = second compound 0.0316 µM, first compound 0.00316 µM
[2] = second compound 0.0316 µM, first compound 0.01 µM
[3] = second compound 0.0316 µM, first compound 0.0316 µM
[4] = second compound 0.0316 µM, first compound 0.1 µM
[5] = second compound 0.0316 µM, first compound 0.316 µM
[6] = second compound 0.0316 µM, first compound 1 µM
[7] = second compound 0.1 µM, first compound 0.00316 µM
[8] = second compound 0.1 µM, first compound 0.01 µM
[9] = second compound 0.1 µM, first compound 0.0316 µM
[10] = second compound 0.1 µM, first compound 0.1 µM
[11] = second compound 0.1 µM, first compound 0.316 µM
[12] = second compound 0.1 µM, first compound 1 µM
[13] = second compound 0.316 µM, first compound 0.00316 µM
[14] = second compound 0.316 µM, first compound 0.01 µM
[15] = second compound 0.316 µM, first compound 0.0316 µM
[16] = second compound 0.316 µM, first compound 0.1 µM
[17] = second compound 0.316 µM, first compound 0.316 µM
[18] = second compound 0.316 µM, first compound 1 µM
[19] = second compound 1 µM, first compound 0.00316 µM
[20] = second compound 1 µM, first compound 0.01 µM
[21] = second compound 1 µM, first compound 0.0316 µM
[22] = second compound 1 µM, first compound 0.1 µM
[23] = second compound 1 µM, first compound 0.316 µM
[24] = second compound 1 µM, first compound 1 µM
[25] = second compound 3.16 µM, first compound 0.00316 µM
[26] = second compound 3.16 µM, first compound 0.01 µM
[27] = second compound 3.16 µM, first compound 0.0316 µM
[28] = second compound 3.16 µM, first compound 0.1 µM
[29] = second compound 3.16 µM, first compound 0.316 µM
[30] = second compound 3.16 µM, first compound 1 µM
[31] = second compound 10 µM, first compound 0.00316 µM
[32] = second compound 10 µM, first compound 0.01 µM
[33] = second compound 10 µM, first compound 0.0316 µM
[34] = second compound 10 µM, first compound 0.1 µM
[35] = second compound 10 µM, first compound 0.316 µM
[36] = second compound 10 µM, first compound 1 µM
[37] = second compound 0.0316 µM, first compound 3.16 µM
[38] = second compound 0.0316 µM, first compound 10 µM
[39] = second compound 0.1 µM, first compound 3.16 µM
[40] = second compound 0.1 µM, first compound 10 µM
[41] = second compound 0.316 µM, first compound 3.16 µM
[42] = second compound 0.316 µM, first compound 10 µM
[43] = second compound 1 µM, first compound 3.16 µM
[44] = second compound 1 µM, first compound 10 µM
[45] = second compound 3.16 µM, first compound 3.16 µM
[46] = second compound 3.16 µM, first compound 10 µM
[47] = second compound 10 µM, first compound 3.16 µM
[48] = second compound 10 µM, first compound 10 µM
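Also: spheroids exposed to compounds for 7 days.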

Structure (SMILES): C=CCn1c(=O)c2cnc(Nc3ccc(N4CCN(C)CC4)cc3)nc2n1-c1cccc(C(C)(C)O)n1 + Nc1ccc(C#CCN(C(=O)Cc2ncc(C(F)(F)F)cc2C(F)(F)F)c2ccc(F)cc2)nn1
- IC50 (second compound 0.0316 µM): 762 nM
- IC50 (second compound 0.1 µM): 667 nM
- IC50 (second compound 0.316 µM): 630 nM
- IC50 (second compound 1 µM): > 1000 nM
- IC50 (second compound 3.16 µM): 779 nM
- IC50 (second compound 10 µM): 880 nM
- viability, T/C [1]: 96.6%
- viability, T/C [2]: 96%
- viability, T/C [3]: 79.6%
- viability, T/C [4]: 67.8%
- viability, T/C [5]: 57.4%
- viability, T/C [6]: 47.3%
- viability, T/C [7]: 106%
- viability, T/C [8]: 95.1%
- viability, T/C [9]: 86.5%
- viability, T/C [10]: 73.8%
- viability, T/C [11]: 57.1%
- viability, T/C [12]: 45.8%
- viability, T/C [13]: 94.9%
- viability, T/C [14]: 92.2%
- viability, T/C [15]: 89.8%
- viability, T/C [16]: 73.9%
- viability, T/C [17]: 56.2%
- viability, T/C [18]: 46%
- viability, T/C [19]: 102%
- viability, T/C [20]: 92.6%
- viability, T/C [21]: 91.3%
- viability, T/C [22]: 76%
- viability, T/C [23]: 58.1%
- viability, T/C [24]: 53.3%
- viability, T/C [25]: 96.3%
- viability, T/C [26]: 101%
- viability, T/C [27]: 88.2%
- viability, T/C [28]: 73.9%
- viability, T/C [29]: 56%
- viability, T/C [30]: 48.3%
- viability, T/C [31]: 116%
- viability, T/C [32]: 98.2%
- viability, T/C [33]: 98.5%
- viability, T/C [34]: 81.4%
- viability, T/C [35]: 63.7%
- viability, T/C [36]: 48.2%

Structure (SMILES): CCCS(=O)(=O)Nc1ccc(F)c(C(=O)c2c[nH]c3ncc(-c4ccc(Cl)cc4)cc23)c1F + Nc1ccc(C#CCN(C(=O)Cc2ncc(C(F)(F)F)cc2C(F)(F)F)c2ccc(F)cc2)nn1
- IC50 (second compound 0.0316 µM): > 10000 nM
- IC50 (second compound 0.1 µM): > 10000 nM
- IC50 (second compound 0.316 µM): > 10000 nM
- IC50 (second compound 1 µM): > 10000 nM
- IC50 (second compound 3.16 µM): > 10000 nM
- IC50 (second compound 10 µM): > 10000 nM
- viability, T/C [3]: 93.2%
- viability, T/C [4]: 95.2%
- viability, T/C [5]: 115%
- viability, T/C [6]: 128%
- viability, T/C [37]: 147%
- viability, T/C [38]: 97.6%
- viability, T/C [9]: 105%
- viability, T/C [10]: 107%
- viability, T/C [11]: 109%
- viability, T/C [12]: 137%
- viability, T/C [39]: 153%
- viability, T/C [40]: 97.5%
- viability, T/C [15]: 99.4%
- viability, T/C [16]: 110%
- viability, T/C [17]: 118%
- viability, T/C [18]: 134%
- viability, T/C [41]: 147%
- viability, T/C [42]: 94.1%
- viability, T/C [21]: 95.6%
- viability, T/C [22]: 101%
- viability, T/C [23]: 116%
- viability, T/C [24]: 132%
- viability, T/C [43]: 148%
- viability, T/C [44]: 95%
- viability, T/C [27]: 90.8%
- viability, T/C [28]: 103%
- viability, T/C [29]: 109%
- viability, T/C [30]: 144%
- viability, T/C [45]: 146%
- viability, T/C [46]: 85%
- viability, T/C [33]: 96.8%
- viability, T/C [34]: 109%
- viability, T/C [35]: 133%
- viability, T/C [36]: 137%
- viability, T/C [47]: 135%
- viability, T/C [48]: 94.5%

Structure (SMILES): CNCc1ccc(-c2[nH]c3cc(F)cc4c3c2CCNC4=O)cc1 + Nc1ccc(C#CCN(C(=O)Cc2ncc(C(F)(F)F)cc2C(F)(F)F)c2ccc(F)cc2)nn1
- IC50 (second compound 0.0316 µM): > 10000 nM
- IC50 (second compound 0.1 µM): > 10000 nM
- IC50 (second compound 0.316 µM): > 10000 nM
- IC50 (second compound 1 µM): > 10000 nM
- IC50 (second compound 3.16 µM): > 10000 nM
- IC50 (second compound 10 µM): > 10000 nM
- viability, T/C [3]: 89%
- viability, T/C [4]: 93%
- viability, T/C [5]: 87.5%
- viability, T/C [6]: 91%
- viability, T/C [37]: 92.3%
- viability, T/C [38]: 91.1%
- viability, T/C [9]: 101%
- viability, T/C [10]: 88.3%
- viability, T/C [11]: 92.5%
- viability, T/C [12]: 94.2%
- viability, T/C [39]: 89.9%
- viability, T/C [40]: 85.6%
- viability, T/C [15]: 95.5%
- viability, T/C [16]: 81.1%
- viability, T/C [17]: 85.9%
- viability, T/C [18]: 89.8%
- viability, T/C [41]: 96.5%
- viability, T/C [42]: 92.7%
- viability, T/C [21]: 88.7%
- viability, T/C [22]: 101%
- viability, T/C [23]: 89.7%
- viability, T/C [24]: 85.7%
- viability, T/C [43]: 88.7%
- viability, T/C [44]: 83.4%
- viability, T/C [27]: 100%
- viability, T/C [28]: 96.8%
- viability, T/C [29]: 96.6%
- viability, T/C [30]: 88.6%
- viability, T/C [45]: 98.3%
- viability, T/C [46]: 81.9%
- viability, T/C [33]: 92%
- viability, T/C [34]: 92.2%
- viability, T/C [35]: 98.8%
- viability, T/C [36]: 91.5%
- viability, T/C [47]: 92.2%
- viability, T/C [48]: 91.7%

Structure (SMILES): COc1cccc(OCCCN)c1-c1cc(Nc2cnc(C#N)cn2)n[nH]1 + Nc1ccc(C#CCN(C(=O)Cc2ncc(C(F)(F)F)cc2C(F)(F)F)c2ccc(F)cc2)nn1
- IC50 (second compound 0.0316 µM): 15.3 nM
- IC50 (second compound 0.1 µM): 13.8 nM
- IC50 (second compound 0.316 µM): 14.2 nM
- IC50 (second compound 1 µM): 15.5 nM
- IC50 (second compound 3.16 µM): 18.2 nM
- IC50 (second compound 10 µM): > 1000 nM
- viability, T/C [1]: 79%
- viability, T/C [2]: 52%
- viability, T/C [3]: 46.1%
- viability, T/C [4]: 46%
- viability, T/C [5]: 45.7%
- viability, T/C [6]: 47.7%
- viability, T/C [7]: 74%
- viability, T/C [8]: 53%
- viability, T/C [9]: 43.2%
- viability, T/C [10]: 43.3%
- viability, T/C [11]: 43.3%
- viability, T/C [12]: 48.1%
- viability, T/C [13]: 77.3%
- viability, T/C [14]: 51.5%
- viability, T/C [15]: 47.3%
- viability, T/C [16]: 42.9%
- viability, T/C [17]: 43%
- viability, T/C [18]: 48.6%
- viability, T/C [19]: 73.7%
- viability, T/C [20]: 51.1%
- viability, T/C [21]: 50.1%
- viability, T/C [22]: 41.3%
- viability, T/C [23]: 41%
- viability, T/C [24]: 46.7%
- viability, T/C [25]: 68.4%
- viability, T/C [26]: 52.3%
- viability, T/C [27]: 46.6%
- viability, T/C [28]: 44%
- viability, T/C [29]: 53.6%
- viability, T/C [30]: 48.1%
- viability, T/C [31]: 72.3%
- viability, T/C [32]: 57.5%
- viability, T/C [33]: 46.1%
- viability, T/C [34]: 49.7%
- viability, T/C [35]: 53.2%
- viability, T/C [36]: 51.2%
